# In publication PMC8480782, “Efficient Dimerization Disruption of Leishmania infantum Trypanothione Reductase by Triazole-phenyl-thiazoles” (Journal of Medicinal Chemistry, 2021):
# Read-outs that look alike come from different tables or passages of the source.
# Columns and labels:
# [1] = system: L. infantum intracellular amastigotes; assay: Leishmanicidal activity in amastigote-infected THP-1 monocyte-derived macrophages; assay type: cell-based, Leishmania infantum; conditions: for EC50: amastigote-infected THP-1 macrophages, 72 h, read-out: EC50 intracellular amastigotes
# Protocol: (§1) THP-1 monocytes were seeded in a 48-well plate at a concentration of 5 × 10^5 cells/mL (250 μL/well) in RPMI complete medium supplemented with phorbol 12-myristate 13-acetate (PMA) (100 ng/mL). Differentiation of THP-1 monocytes to macrophages was allowed for 24 h at 37 °C and 5% CO2. THP-1-derived macrophages were infected with GFP-expressing axenic amastigotes at 5 × 10^6 parasites/mL in RPMI complete medium for 24 h (250 μL/well). Extracellular amastigotes were washed twice with PBS. The remaining extracellular parasites were challenged for 24 h with THP-1 medium supplemented with 10% horse serum (Gibco) instead of FCS. Cells were washed twice with PBS, and treatments were performed in 250 μL of fresh RPMI medium supplemented with 10% horse serum for 72 h at 37 °C and 5% CO2. Afterward, treatments were removed by two PBS washes. Lysis of infected cells was performed with 120 μL of SDS 0.005% (w/v) in PBS. After a 30 min incubation at 37 °C, lysis was stopped by adding RPMI complete medium with PI at 20 μg/mL (120 μL/well). The lysates were transferred to a 96-well plate (200 μL/well), and the GFP^+ amastigotes extracted from the infected cells were acquired by a Beckman Coulter FC500 flow cytometer. Each sample (100 μL) was acquired for 20 s.
# The relative number of GFP^+ intracellular amastigotes per cell in each sample was estimated after the division of the total number of GFP+ amastigotes by the LDH activity value of the sample. Results were normalized to the vehicle-treated controls. EC50 values of intracellular amastigotes were calculated using a nonlinear regression model with GraFit 6 software (Erithacus, Horley, Surrey, U.K.). All of the assays were conducted in at least three independent experiments.
# [2] = system: THP-1 monocyte-derived macrophages; assay: Cytotoxicity in THP-1 monocyte-derived macrophages (LDH activity); assay type: cell-based, human; conditions: LDH activity
# Protocol: THP-1 cells were grown in RPMI-1640 medium (Gibco, Leiden, The Netherlands) supplemented with 10% heat-inactivated FCS, antibiotics, 10 mM HEPES, 2 mM glutamine, and 1 mM sodium pyruvate, pH 7.2, at 37 °C and 5% CO2.
# as §1
# Cytotoxicity of THP-1 infected macrophages was determined using an in-house developed lactate dehydrogenase (LDH) activity assay. LDH activity assays from the remaining cell lysates (100 μL/well) were carried out at 37 °C in 250 μL of Tris/HCl buffer (pH 8.9, 50 mM) containing DL-lactate (840 mM), NAD^+ (450 μM), 1-methoxyphenazine methosulfate (45 μM), and nitro blue tetrazolium chloride (40 μM). The color intensity of the generated formazan dye was monitored at 570 nm using an EnSpire Multimode Plate Reader (PerkinElmer, Waltham, MA). CC50 values were calculated using a nonlinear regression model with GraFit 6 software (Erithacus, Horley, Surrey, U.K.).
# [3] = system: L. infantum promastigotes; assay: Leishmanicidal activity on promastigotes (PI exclusion, flow cytometry); assay type: cell-based, Leishmania infantum; conditions: for EC50: Leishmania infantum
# Protocol: (§2) L. infantum promastigotes (MCAN/ES/89/IPZ229/1/89) were grown in Roswell Park Memorial Institute (RPMI)-1640 medium (Sigma-Aldrich, St. Louis, MO) supplemented with 10% heat-inactivated fetal calf serum (FCS), antibiotics, and 25 mM HEPES (pH 7.2) at 26 °C. L. infantum axenic amastigotes (MCAN/ES/89/IPZ229/1/89) were grown in M199 medium (Invitrogen, Leiden, The Netherlands) supplemented with 10% heat-inactivated FCS, 1 g/L β-alanine, 100 mg/L L-asparagine, 200 mg/L sucrose, 50 mg/L sodium pyruvate, 320 mg/L malic acid, 40 mg/L fumaric acid, 70 mg/L succinic acid, 200 mg/L α-ketoglutaric acid, 300 mg/L citric acid, 1.1 g/L sodium bicarbonate, 5 g/L morpholineethanesulfonic acid (MES), 0.4 mg/L hemin, and 10 mg/L gentamicine, pH 5.4, at 37 °C.
# (§3) Drug treatment of L. infantum promastigotes was performed during the logarithmic growth phase at a concentration of 2 × 10^6 parasites/mL at 26 °C for 24 h. […] EC50 was evaluated by flow cytometry by the propidium iodide (PI) exclusion method. After selection of the parasite population based on their forward scatter (FSC) and side scatter (SSC) values, live and dead parasite cells were identified by their permeability to PI. All of the assays were conducted in triplicate in at least three independent experiments. Data were analyzed using a nonlinear regression model with GraFit 6 software (Erithacus, Horley, Surrey, U.K.).
# [4] = system: L. infantum axenic amastigotes; assay: Leishmanicidal activity on axenic amastigotes (PI exclusion, flow cytometry); assay type: cell-based, Leishmania infantum; conditions: for SIa (ratio of EC50 against human cells to EC50 against amastigotes): HepG2 / axenic amastigotes; for EC50: Leishmania infantum, axenic amastigotes, 24 h at 37 °C, read-out: EC50 amastigotes
# Protocol: as §2
# Axenization was performed by diluting 0.5 mL of a 7-day stationary phase culture of L. infantum promastigotes (2–3 × 10^7 parasites/mL) in 4.5 mL of amastigotes medium and incubating the culture at 37 °C for 2 or 3 days. L. infantum axenic amastigotes apparition was followed by phase-contrast microscopy using an Eclipse Ti inverted microscope (Nikon, Tokyo, Japan).
# as §3
# HepG2 cells = assay: Cellular toxicity, crystal violet assay; assay type: cell-based; conditions: Homo sapiens, HepG2; 24 h, crystal violet method; read-out: EC50 HepG2
# Protocol: Liver hepatocellular carcinoma HepG2 cells were grown in Dulbecco’s modified Eagle’s medium (DMEM) (Sigma-Aldrich, St. Louis, MO) with 10% heat-inactivated FCS, antibiotics, and 10 mM HEPES.
# Drug treatment of liver hepatocellular carcinoma HepG2 cells was performed at a concentration of 10^5 cells/mL at 37 °C and 5% CO2 for 24 h. EC50 was evaluated by the crystal violet assay. Briefly, cells were washed with phosphate-buffered saline (PBS) and stained with 200 μL of crystal violet solution (0.2% crystal violet, 2% ethanol) for 10 min at room temperature. Next, the plates were washed twice with tap water and allowed to dry. The stained cells were solubilized with 400 μL of 1% sodium dodecyl sulfate (SDS), and the color intensity was quantified at 570 nm using an EnSpire Multimode Plate Reader (PerkinElmer, Waltham, MA). All of the assays were conducted in triplicate in at least three independent experiments. Data were analyzed using a nonlinear regression model with GraFit 6 software (Erithacus, Horley, Surrey, U.K.).
# LiTryR = molecular target: T1, LiTryR (Leishmania infantum, UniProt A4HSF7); assay: biochemical; assay type: biochemical; conditions: LiTryR; 1 μM TS2; maximum assayed 75 μM; read-out: IC50^act, TryR oxidoreductase activity
# T1 construct: HIS (N); made in house; host or cells: E. coli BL21 (DE3) Rossetta
# Protocol: A concentration of 1 μM TS2 was used for this initial screening. This low substrate concentration is sufficient for comparison of compound inhibitory activity in the oxidoreductase assay.
# Recombinant L. infantum TryR (LiTryR) HIS-tagged and HIS-FLAG-tagged versions were used for all LiTryR oxidoreductase activity and dimer quantitation assays. These LiTryR versions were purified from Escherichia coli as previously described.[25] Briefly, pRSETA-HIS-LiTryR construct alone or in combination with the pET24a-FLAG-LiTryR construct was transformed into BL21 (DE3) Rossetta E. coli strain. An overnight E. coli culture grown at 37 °C in Luria–Bertani (LB) medium with the appropriate antibiotics and vigorous shaking was diluted (1:100) in the same medium and allowed to grow in the same conditions until the OD600 was 0.5. Then, LiTryR expression was induced by addition of 1 mM isopropyl-β-D-1-thiogalactopyranoside (IPTG) for 16 h at 26 °C. The cells were centrifuged for 5 min at 9000g and 4 °C and the wet pellet resuspended in lysis buffer (50 mM Tris, pH 7, 300 mM NaCl, 25 mM imidazole, protease inhibitor cocktail, and 1 mg/mL lysozyme). […] The supernatant was sonicated again as previously described for 10 min and loaded on a HisTrap column (GE Healthcare, Chicago, IL) for 16 h at 4 °C using a P-1 peristaltic pump (GE Healthcare, Chicago, IL). Once loaded, the HisTrap column was connected to an ÄKTA purifier UPC 10 (GE Healthcare, Chicago, IL) and washed using a 5–10% gradient between buffer A (50 mM Tris, pH 7 and 300 mM NaCl) and B (50 mM Tris, pH 7, 300 mM NaCl, and 500 mM imidazole). LiTryR was eluted using a 40% gradient between buffers A and B. Fractions containing recombinant LiTryR were pooled and loaded into a HiPrep 26/10 Desalting column (GE Healthcare, Chicago, IL) previously equilibrated with buffer A. Finally, LiTryR was concentrated to 2 mg/mL using an Amicon Ultra-15 50K (Merck Millipore, Burlington, MA) and an equal volume of glycerol was added before storing at −20 °C.
# TryR oxidoreductase activity was determined spectrophotometrically using a modified version of the DTNB-coupled assay described by Hamilton et al.[52] Briefly, reactions were carried out at 26 °C in 250 μL of N-(2-hydroxyethyl)piperazine-N′-ethanesulfonic acid (HEPES) buffer (pH 7.5, 40 mM) containing ethylenediaminetetraacetic acid (EDTA) (1 mM), NADP^+ (30 μM), DTNB (25 μM), TS2 (1 μM), NADPH (150 μM), glycerol (0.02%), DMSO (1.75%), and recombinant TryR (7 nM). […] Reactions were started by addition of a mixture of NADPH and TS2.
# TryR oxidoreductase activity was monitored at 26 °C by an increase in absorbance at 412 nm in an EnSpire Multimode Plate Reader (PerkinElmer, Waltham, MA). […] (TNB) concentration was obtained by multiplying the absorbance values by 100 (50 μM TNB generates 0.5 arbitrary units of absorbance at 412 nm). In this DTNB-coupled assay, one molecule of T(SH)2 reduces one molecule of DTNB, producing two TNB molecules. All of the assays were conducted in at least three independent experiments. Data were analyzed using a nonlinear regression model with GraFit 6 software (Erithacus, Horley, Surrey, U.K.).
# LiTryR dimer = molecular target: T2, LiTryR dimer (Leishmania infantum, UniProt A4HSF7); assay: biochemical; conditions: 400 nM LiTryR, 16 h at 37 °C; read-out: IC50^dim, LiTryR monomer displacement (dimer quantitation ELISA)
# T2 construct: made in house; host or cells: E. coli BL21 (DE3) Rossetta (co-transformed with both plasmids)
# Protocol: The stability of the LiTryR dimeric form in the presence of 1,2,3-triazole-phenyl-thiazole-based compounds was evaluated using the novel enzyme-linked immunosorbent assay (ELISA) developed in our laboratory.[25] […] Next, the different solutions were centrifuged at 18 000g for 15 min at room temperature. The supernatants (200 μL/well) were added to the α-FLAG-coated plates (Sigma-Aldrich, St. Louis, MO) and incubated for 30 min at 37 °C with agitation in a humid atmosphere. The plates were washed five times with TTBS buffer (2 mM Tris, pH 7.6, 138 mM NaCl, and 0.1% Tween-20) and incubated with diluted monoclonal α-HIS horseradish peroxidase (HRP)-conjugated antibody (200 μL, 1:50 000, Abcam, Cambridge, U.K.) in fatty acid- and essentially globulin-free bovine serum albumin (BSA) (5%) prepared in TTBS buffer for 1 h at room temperature. The plates were washed five times, and o-phenylenediamine dihydrochloride (OPD) substrate prepared according to the manufacturer’s instructions was added. The enzymatic reaction was stopped after 5 min with H2SO4 (100 μL, […]), and the absorbances were measured at 490 nm in an EnSpire Multimode Plate Reader (PerkinElmer, Waltham, MA). All of the assays were conducted in triplicate in at least three independent experiments. Data were analyzed using a nonlinear regression model with GraFit 6 software (Erithacus, Horley, Surrey, U.K.).
# [5] = 24 h at 26 °C, read-out: EC50 promastigotes
# [6] = Leishmania infantum, THP-1, 72 h
# T1 sequence (A4HSF7 1-491): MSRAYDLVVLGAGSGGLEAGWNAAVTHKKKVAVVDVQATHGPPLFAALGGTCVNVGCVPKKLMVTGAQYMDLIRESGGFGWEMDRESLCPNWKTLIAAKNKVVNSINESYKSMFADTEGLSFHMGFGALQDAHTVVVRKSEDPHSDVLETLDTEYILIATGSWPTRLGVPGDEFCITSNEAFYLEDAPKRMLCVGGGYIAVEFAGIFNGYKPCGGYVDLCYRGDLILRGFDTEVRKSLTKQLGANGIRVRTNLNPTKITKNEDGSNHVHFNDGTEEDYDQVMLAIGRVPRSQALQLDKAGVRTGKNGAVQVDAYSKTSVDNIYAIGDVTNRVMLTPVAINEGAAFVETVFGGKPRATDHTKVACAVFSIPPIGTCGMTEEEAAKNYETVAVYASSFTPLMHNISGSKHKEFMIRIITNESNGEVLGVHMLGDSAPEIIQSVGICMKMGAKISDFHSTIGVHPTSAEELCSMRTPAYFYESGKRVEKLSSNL
# T2 sequence (A4HSF7 1-491): as above
Molecule,SI (intracellular amastigotes) ([1]; THP-1 / intracellular amastigotes),EC50 [1],EC50 [2],SIp (ratio of EC50 against human cells to EC50 against promastigotes) ([3]; HepG2 / promastigotes),"EC50 [3, 5]",SIa (ratio of EC50 against human cells to EC50 against amastigotes) [4],EC50 [4],EC50 (HepG2 cells),"EC50 [1, 6]","EC50 ([2]; Homo sapiens, THP-1)",IC50 (LiTryR),IC50 (LiTryR dimer),"EC50 ([3]; promastigotes or amastigotes (either form), read-out: EC50 against Leishmania promastigotes or amastigotes)"
edelfosine [reference compound],1.4,2.5 ± 0.02 µM,3.5 ± 0.3 µM,–,–,–,–,–,–,–,–,–,–
"CCCCCCCCCCCCCCCCOP(=O)([O-])OCC[N+](C)(C)C [miltefosine, reference compound]",–,–,–,> 1.6,47.6 ± 0.6 µM,> 37.5,2 ± 0.1 µM,> 75 µM,0.6 ± 0.1 µM,> 25 µM,–,–,–
"NCCCCc1cn(-c2ccc(-c3nc(-c4ccc(-c5ccccc5)cc4)c(-c4ccccc4)s3)c(OCCN3CCNC3=O)c2)nn1.O=C(O)C(F)(F)F [19b, 1-(2-(5-(4-(4-Ammoniobutyl)-1H-1,2,3-triazol-1-yl)-2-(4-([1,1′-biphenyl]-4-yl)-5-phenylthiazol-2-yl)phenoxy)ethyl)imidazolidin-2-one 2,2,2-Trifluoroacetate]",–,–,–,–,–,ND/1.8,9.4 ± 0.5 µM,17.3 ± 0.1 µM,–,–,18.4 ± 3.9 µM,11.3 ± 0.2 µM,< 10 µM
"C[C@@H]1[C@H](O)[C@@H](C)/C=C/C=C/C=C/C=C/C=C/C=C/C=C/[C@H](O[C@@H]2O[C@H](C)[C@@H](O)[C@H](N)[C@@H]2O)C[C@@H]2O[C@](O)(C[C@@H](O)C[C@@H](O)[C@H](O)CC[C@@H](O)C[C@@H](O)CC(=O)O[C@H]1C)C[C@H](O)[C@H]2C(=O)O [amphotericin B, reference compound]",–,–,–,–,–,–,–,–,0.07 ± 0.01 µM,> 5 µM,–,–,–
COc1cc(-n2cc(CCCCN)nn2)ccc1-c1nc(CCc2ccccc2)cs1.O=C(O)C(F)(F)F [12j],–,–,–,–,8.5 ± 0.1 µM,1.7,7.1 ± 0.7 µM,12.4 ± 0.7 µM,–,–,20.1 ± 2.5 µM,> 75 µM,–
